Tests used:
Lgr5-positive cells = assay: Expansion of Lgr5-positive cochlear cells from Lgr5-EGFP-IRES-Cre-ER mice (flow cytometry for Lgr5-GFP); format: cell-based, mouse; details: 10 days (D10) in culture; for Potency: Lgr5-positive cell expansion; for % of Cells: percentage of GFP-positive (Lgr5-GFP) cells
Method: Lgr5-EGFP-IRES-Cre-ER mice (Barker et al., 2007) (http://jaxmice.jax.org/strain/008875.html) are used to analyze the effects of small molecules on cochlear stem cell expansion.
Isolation of stem cells from the inner ear: All animal studies are conducted under an approved institutional protocol according to National Institutes of Health guidelines. For experiments with neonatal mice (postnatal days 1-3), the cochleae are dissected in HBSS and the organ of Corti are separated from the stria vascularis and the modiolus. The organs of Corti are then treated with Cell Recovery Solution (Corning) for 1 h to separate cochlear epithelium from the underlying mesenchyme. Epithelia are then collected and treated with TrypLE (Life Technologies) for 15-20 minutes at 37° C. Single cells obtained by mechanical trituration are filtered (40 μm) and suspended in Matrigel (Corning) for 3D culture.
Cells are cultured in a 1:1 mixture of DMEM and F12, supplemented with Glutamax (GIBCO), N2, B27 (Invitrogen), EGF (50 ng/ml; Chemicon), bFGF (50 ng/ml; Chemicon), IGF1 (50 ng/ml; Chemicon) and the composition provided herein. Media are changed every other day.
Lgr5-positive cells are quantified after 10 days (D10) in culture in multiple conditions. Cell colonies are dissociated into single cells using TrypLE (Gibco). The cells are then stained with propidium iodide (PI) and are analyzed using a flow cytometer for Lgr5-GFP expression. The number of GFP-positive cells and the percentage of GFP-positive cells are quantified.
Atoh1-nGFP-positive cells are quantified at day 0 (D0) and day 10 (D10) of differentiation treatment to determine the number of hair cells that have differentiated. Cell colonies are incubated in Cell Recovery Solution to release the colonies from Matrigel and dissociated into single cells using TrypLE. The total number and percentage of GFP-positive cells are quantified using a flow cytometer for multiple culture conditions. ANOVA is used to compare means across conditions, and the two-tailed Student's T-test is used to compare each condition to the treatment with the highest yield.

recombinant human GSK3α = recombinant human GSK3α (Homo sapiens, UniProt P49840); assay: In vitro enzymatic assay for inhibition of GSK3α (Kinase-Glo Max luminescence); format: biochemical; details: 10 uM ATP, 0.1 mg/ml GSKtide, 30° C. for 40 minutes; read-out: Potency GSK-3alpha
Sequence of recombinant human GSK3α (P49840 whole entry): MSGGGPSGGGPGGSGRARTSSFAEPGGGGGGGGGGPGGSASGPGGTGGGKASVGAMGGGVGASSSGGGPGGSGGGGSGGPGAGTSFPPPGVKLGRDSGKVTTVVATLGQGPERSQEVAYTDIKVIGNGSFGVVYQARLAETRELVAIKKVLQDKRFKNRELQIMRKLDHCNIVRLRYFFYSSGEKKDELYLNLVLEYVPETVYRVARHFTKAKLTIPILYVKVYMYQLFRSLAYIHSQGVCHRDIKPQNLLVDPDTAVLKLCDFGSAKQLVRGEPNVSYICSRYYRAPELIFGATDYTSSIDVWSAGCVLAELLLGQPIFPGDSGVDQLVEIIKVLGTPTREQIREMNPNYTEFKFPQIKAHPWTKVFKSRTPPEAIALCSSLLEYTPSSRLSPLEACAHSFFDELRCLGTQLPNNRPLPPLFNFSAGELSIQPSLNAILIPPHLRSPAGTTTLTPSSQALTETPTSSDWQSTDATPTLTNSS
Method: (§1) Enzymatic activities using recombinant human GSK3 using an in vitro enzymatic assay for inhibition GSK3α and GSK3β.
(§2) The assay was performed using Kinase-Glo Max luminescence kinase assay kit (Promega). It measures kinase activity by quantitating the amount of ATP remaining in solution following a kinase reaction. The luminescent signal from the assay is correlated with the amount of ATP present and is inversely correlated with the amount of kinase activity. The compounds were diluted in 10% DMSO and 5 μl of the dilution was added to a 50 μl reaction so that the final concentration of DMSO is 1% in all of reactions. The enzymatic reactions were conducted at 30° C. for 40 minutes. The 50 μl reaction mixture contains 40 mM Tris, pH 7.4, 10 mM MgCl2, 0.1 mg/ml BSA, 2 mM DTT, 0.1 mg/ml GSKtide substrate, 10 uM ATP and GSK3. After the enzymatic reaction, 50 μl of Kinase-Glo Max Luminescence kinase assay solution (Promega) was added to each reaction and incubate the plate for 15 minutes at room temperature. Luminescence signal was measured using a BioTek Synergy 2 microplate reader.
(§3) Kinase activity assays were performed in duplicate at each concentration. The luminescence data were analyzed using the computer software, Graphpad Prism. The difference between luminescence intensities in the absence of Kinase (Lut) and in the presence of Kinase (Luc) was defined as 100% activity (Lut−Luc). […]

[1] = system: Wnt signaling pathway, TCF/LEF reporter-HEK293 Recombinant cell lines; assay: Wnt signaling pathway activation in HEK293 cells (TCF/LEF reporter, luciferase); format: cell-based; details: Homo sapiens, incubated overnight, read-out: Potency
Method: Assay: Wnt Signaling Pathway Activation in HEK293 Cells. Materials:
TCF/LEF reporter-HEK293 Recombinant cell lines
One-Step Luciferase Assay System
The assay was performed using TCF/LEF reporter-HEK293 Recombinant cell lines
Plate 32,000 TCF/LEF reporter-HEK293 Recombinant cells/well in a 96-well plate (volume=90 μL). The compounds were diluted in the thawing medium 1 containing 1% DMSO, and add 10 μL to each well (0.1% DMSO at final). The cells were incubated for overnight at 37° C. in 5% CO2 followed by adding 100 μL of One-Step Luciferase Assay System to each well. Plate was incubated for 30 min at room temperature in a darkroom.
Luminescence signal was measured using a BioTek Synergy 2 microplate reader.
Wnt signaling pathway activation assays were performed in triplicates at each concentration. The luminescence data were analyzed using the computer software, Graphpad Prism. The luminescence intensity in the absence of Compounds (Luc) was defined the minimum activity and the signal in the presence of the highest concentration of the Compound was defined as the maximum activity. Signal from the wells containing medium only was defined as background. […]

recombinant human GSK3β = recombinant human GSK3β (Homo sapiens, UniProt P49841); assay: In vitro enzymatic assay for inhibition of GSK3β (Kinase-Glo Max luminescence); format: biochemical; details: 10 uM ATP, 0.1 mg/ml GSKtide, 30° C. for 40 minutes; read-out: Potency GSK-3beta
Sequence of recombinant human GSK3β (P49841 whole entry): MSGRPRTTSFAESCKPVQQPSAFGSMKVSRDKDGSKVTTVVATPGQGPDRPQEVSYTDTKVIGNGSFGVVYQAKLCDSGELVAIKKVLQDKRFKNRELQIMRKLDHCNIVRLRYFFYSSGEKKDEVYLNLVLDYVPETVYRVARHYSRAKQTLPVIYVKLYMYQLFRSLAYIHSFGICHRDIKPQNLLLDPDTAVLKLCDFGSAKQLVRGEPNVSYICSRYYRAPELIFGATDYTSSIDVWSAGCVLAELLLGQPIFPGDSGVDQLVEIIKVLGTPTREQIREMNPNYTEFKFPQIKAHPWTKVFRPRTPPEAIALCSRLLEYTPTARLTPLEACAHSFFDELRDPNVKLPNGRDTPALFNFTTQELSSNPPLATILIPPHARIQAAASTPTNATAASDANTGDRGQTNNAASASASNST
Method: as §1, §2, §3

SMILES	Potency (Lgr5-positive cells) [nM]	% of Cells (Lgr5-positive cells) [%]	IC50 (recombinant human GSK3α) [nM]	EC50 [1] [nM]	IC50 (recombinant human GSK3β) [nM]
O=C1NCC(c2cn3c4c(cc(F)cc24)CN(C(=O)N2CCCCC2)CC3)=C1c1cnc2ccccn12 [Compound I-4]	333.3	8.3	15.6	60	22
O=C1NCC(c2cnc3ccccn23)=C1c1cn2c3c(cc(F)cc13)CN(C(=O)N1CCCCC1)CC2 [Compound I-49]	333.3	5.5	8.2	< 10	8.3
